Reference: ChEMBL document CHEMBL4052650, “Halogen-substituted catechol bisphosphates are potent and selective inhibitors of the transcription factor STAT5b” (Bioorg Med Chem, 2017)

How the values were obtained:
Homo sapiens = species: Homo sapiens; assay: Selectivity factor, ratio of IC50 for displacement of 5-carboxyfluorescein-GY(PO3H2)LVLDKW from STAT5A SH2 domain (unknown origin) to IC50 for displacement of 5-carboxyfluorescein-GY(PO3H2)LVLDKW from STAT5B SH2 domain (unknown origin)
[1] = molecular target: T1, Signal transducer and activator of transcription 5B (Homo sapiens, UniProt P51692); assay: Displacement of 5-carboxyfluorescein-GY(PO3H2)LVLDKW from STAT5B SH2 domain (unknown origin) pretreated for 1 hr followed by fluorescent tracer addition after 1 hr by fluorescence polarization assay
T1 sequence (P51692 whole entry): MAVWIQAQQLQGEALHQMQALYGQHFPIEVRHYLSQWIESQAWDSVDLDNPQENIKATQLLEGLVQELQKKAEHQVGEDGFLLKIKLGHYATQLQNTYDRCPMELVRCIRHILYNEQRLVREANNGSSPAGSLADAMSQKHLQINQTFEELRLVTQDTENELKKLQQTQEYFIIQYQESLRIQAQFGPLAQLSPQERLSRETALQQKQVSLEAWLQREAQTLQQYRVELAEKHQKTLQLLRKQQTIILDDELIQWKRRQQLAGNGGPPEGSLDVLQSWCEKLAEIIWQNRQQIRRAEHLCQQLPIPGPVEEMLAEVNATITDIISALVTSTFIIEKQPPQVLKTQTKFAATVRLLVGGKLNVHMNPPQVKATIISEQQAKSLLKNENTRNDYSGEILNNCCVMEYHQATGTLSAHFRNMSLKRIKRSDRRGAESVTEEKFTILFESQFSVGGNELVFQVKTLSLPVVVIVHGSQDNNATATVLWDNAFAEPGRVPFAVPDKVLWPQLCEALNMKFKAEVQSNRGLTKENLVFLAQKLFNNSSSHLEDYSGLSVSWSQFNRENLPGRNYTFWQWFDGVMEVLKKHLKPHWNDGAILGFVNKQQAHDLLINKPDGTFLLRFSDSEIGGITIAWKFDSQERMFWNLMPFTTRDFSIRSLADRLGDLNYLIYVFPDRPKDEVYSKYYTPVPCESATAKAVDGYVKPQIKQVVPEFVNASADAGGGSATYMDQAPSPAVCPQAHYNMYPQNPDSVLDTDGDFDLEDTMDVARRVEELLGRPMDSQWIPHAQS

[2] = molecular target: T2, Signal transducer and activator of transcription 5A (Homo sapiens, UniProt P42229); assay: Displacement of 5-carboxyfluorescein-GY(PO3H2)LVLDKW from STAT5A SH2 domain (unknown origin) pretreated for 1 hr followed by fluorescent tracer addition after 1 hr by fluorescence polarization assay
T2 sequence (P42229 whole entry): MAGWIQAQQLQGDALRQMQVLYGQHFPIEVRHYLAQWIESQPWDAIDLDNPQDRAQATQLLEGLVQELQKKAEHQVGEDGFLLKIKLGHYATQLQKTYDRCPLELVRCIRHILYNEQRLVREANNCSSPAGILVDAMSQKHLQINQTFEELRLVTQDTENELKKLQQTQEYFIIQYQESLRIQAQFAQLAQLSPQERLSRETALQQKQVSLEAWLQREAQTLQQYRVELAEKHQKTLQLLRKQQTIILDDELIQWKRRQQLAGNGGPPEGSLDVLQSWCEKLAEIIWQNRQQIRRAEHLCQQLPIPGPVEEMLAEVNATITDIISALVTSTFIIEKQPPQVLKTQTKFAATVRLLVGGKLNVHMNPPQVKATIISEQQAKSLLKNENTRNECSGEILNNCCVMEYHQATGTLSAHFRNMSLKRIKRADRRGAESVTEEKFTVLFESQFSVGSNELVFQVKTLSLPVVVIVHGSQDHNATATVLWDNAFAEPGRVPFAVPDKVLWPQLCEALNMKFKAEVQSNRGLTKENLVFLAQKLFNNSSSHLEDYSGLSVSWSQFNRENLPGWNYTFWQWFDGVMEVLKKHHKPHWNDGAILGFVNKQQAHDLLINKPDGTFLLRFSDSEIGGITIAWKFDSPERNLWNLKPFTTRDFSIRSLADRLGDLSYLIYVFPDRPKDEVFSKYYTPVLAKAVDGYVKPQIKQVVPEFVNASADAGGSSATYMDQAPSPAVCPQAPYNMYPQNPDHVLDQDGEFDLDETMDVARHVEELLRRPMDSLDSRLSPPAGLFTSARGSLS

Row | Ratio IC50 (Homo sapiens) | IC50 [1] | IC50 [2] | Structure (SMILES)
1 | 33 | 0.22 µM | 7.2 µM | O=C(COc1ccc2cc(C(=O)Nc3ccc(F)cc3)ccc2c1)NCc1ccc(OP(=O)(O)O)c(OP(=O)(O)O)c1
2 | 33 | 0.27 µM | 8.9 µM | O=C(COc1ccc2cc(C(=O)Nc3ccc(Cl)cc3)ccc2c1)NCc1ccc(OP(=O)(O)O)c(OP(=O)(O)O)c1
3 | 22 | 0.39 µM | 8.6 µM | O=C(COc1ccc(C(=O)Nc2ccc(Br)cc2)cc1)NCc1ccc(OP(=O)(O)O)c(OP(=O)(O)O)c1
4 | 37 | 0.29 µM | 10.6 µM | O=C(COc1ccc2cc(C(=O)Nc3cccc(Br)c3)ccc2c1)NCc1ccc(OP(=O)(O)O)c(OP(=O)(O)O)c1
5 | 32 | 0.24 µM | 7.6 µM | O=C(COc1ccc2cc(C(=O)Nc3ccc(Br)cc3)ccc2c1)NCc1ccc(OP(=O)(O)O)c(OP(=O)(O)O)c1
6 | 24 | 0.35 µM | 8.3 µM | O=C(COc1ccc(C(=O)Nc2ccc(F)cc2)cc1)NCc1ccc(OP(=O)(O)O)c(OP(=O)(O)O)c1

The remaining lines, values behind:

Row | Structure (SMILES) | Ratio IC50 (Homo sapiens) | IC50 [1] | IC50 [2]
7 | O=C(COc1ccc(C(=O)Nc2ccccc2)cc1)NCc1ccc(OP(=O)(O)O)c(OP(=O)(O)O)c1 | 35 | 0.28 µM | 9.7 µM
8 | O=C(COc1ccc(C(=O)Nc2cccc(Br)c2)cc1)NCc1ccc(OP(=O)(O)O)c(OP(=O)(O)O)c1 | 16 | 0.66 µM | 10.5 µM
9 | O=C(COc1ccc(C(=O)Nc2cccc(F)c2)cc1)NCc1ccc(OP(=O)(O)O)c(OP(=O)(O)O)c1 | 19 | 0.62 µM | 11.9 µM
10 | O=C(COc1ccc(C(=O)Nc2ccc(Cl)cc2)cc1)NCc1ccc(OP(=O)(O)O)c(OP(=O)(O)O)c1 | 22 | 0.33 µM | 7.4 µM
11 | O=C(COc1ccc2cc(C(=O)Nc3cccc(Cl)c3)ccc2c1)NCc1ccc(OP(=O)(O)O)c(OP(=O)(O)O)c1 | 28 | 0.26 µM | 7.3 µM
12 | O=C(COc1ccc(C(=O)Nc2cccc(Cl)c2)cc1)NCc1ccc(OP(=O)(O)O)c(OP(=O)(O)O)c1 | 20 | 0.46 µM | 9.1 µM
13 | O=C(COc1ccc2cc(C(=O)Nc3cccc(F)c3)ccc2c1)NCc1ccc(OP(=O)(O)O)c(OP(=O)(O)O)c1 | 36 | 0.234 µM | 8.4 µM
